The source made the active and inactive calls. The rule behind the calls is not given here.
Legend:
Rattus norvegicus [1] = assay: 40% inhibition of induced edema in the rat mycobacterium foot-pad edema test; N=Inactive; type: functional, organism-based
Rattus norvegicus [2] = assay: Inhibition of rat carrageenan induced foot-pad edema at a dose of 10 mg/kg on peroral administration; conditions: po, read-out: Inhibition
Rattus norvegicus [3] = assay: Inhibition of rat carrageenan induced foot-pad edema at a dose of 30 mg/kg on peroral administration; conditions: po, read-out: Inhibition
[4] = target: T1, Polyunsaturated fatty acid 5-lipoxygenase (Rattus norvegicus, UniProt P12527)
T1 sequence (P12527 whole entry): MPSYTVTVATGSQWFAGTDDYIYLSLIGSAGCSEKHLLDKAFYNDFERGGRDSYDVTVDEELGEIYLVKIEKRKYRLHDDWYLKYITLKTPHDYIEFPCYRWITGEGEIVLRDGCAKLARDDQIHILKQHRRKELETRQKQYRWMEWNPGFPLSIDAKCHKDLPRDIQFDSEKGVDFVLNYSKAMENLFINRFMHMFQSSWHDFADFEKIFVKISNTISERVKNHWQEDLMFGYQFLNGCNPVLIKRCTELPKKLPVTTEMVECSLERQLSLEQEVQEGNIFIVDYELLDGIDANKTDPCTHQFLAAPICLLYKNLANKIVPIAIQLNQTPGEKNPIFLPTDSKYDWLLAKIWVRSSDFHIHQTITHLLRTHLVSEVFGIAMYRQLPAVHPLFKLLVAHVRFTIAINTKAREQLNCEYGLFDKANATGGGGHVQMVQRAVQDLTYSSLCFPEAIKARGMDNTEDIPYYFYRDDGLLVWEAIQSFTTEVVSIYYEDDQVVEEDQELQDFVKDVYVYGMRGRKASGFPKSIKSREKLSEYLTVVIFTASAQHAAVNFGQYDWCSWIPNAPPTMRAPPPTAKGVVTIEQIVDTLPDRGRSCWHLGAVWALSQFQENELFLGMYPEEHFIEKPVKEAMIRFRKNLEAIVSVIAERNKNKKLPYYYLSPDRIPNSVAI

Cyclooxygenase = target: T2, Cyclooxygenase (Rattus norvegicus, UniProt P35355+Q63921); conditions: rbl-1
T2 sequence (P35355 whole entry): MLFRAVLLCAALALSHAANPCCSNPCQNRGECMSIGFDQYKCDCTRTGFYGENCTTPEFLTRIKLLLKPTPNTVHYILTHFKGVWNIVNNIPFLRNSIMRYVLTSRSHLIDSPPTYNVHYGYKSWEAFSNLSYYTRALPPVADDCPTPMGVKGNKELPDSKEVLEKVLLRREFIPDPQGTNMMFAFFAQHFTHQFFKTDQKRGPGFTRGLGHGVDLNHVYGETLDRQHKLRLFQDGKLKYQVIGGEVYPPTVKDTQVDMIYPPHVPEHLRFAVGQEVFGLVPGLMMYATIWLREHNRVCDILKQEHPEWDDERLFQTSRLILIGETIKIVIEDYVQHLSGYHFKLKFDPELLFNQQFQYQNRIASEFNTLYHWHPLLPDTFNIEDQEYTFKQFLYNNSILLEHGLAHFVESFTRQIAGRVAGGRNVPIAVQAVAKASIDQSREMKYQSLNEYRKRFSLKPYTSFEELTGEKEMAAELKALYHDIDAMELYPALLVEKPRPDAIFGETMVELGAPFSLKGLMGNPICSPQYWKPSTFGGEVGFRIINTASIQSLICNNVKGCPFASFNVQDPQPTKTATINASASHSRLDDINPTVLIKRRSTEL
T2 sequence (Q63921 whole entry): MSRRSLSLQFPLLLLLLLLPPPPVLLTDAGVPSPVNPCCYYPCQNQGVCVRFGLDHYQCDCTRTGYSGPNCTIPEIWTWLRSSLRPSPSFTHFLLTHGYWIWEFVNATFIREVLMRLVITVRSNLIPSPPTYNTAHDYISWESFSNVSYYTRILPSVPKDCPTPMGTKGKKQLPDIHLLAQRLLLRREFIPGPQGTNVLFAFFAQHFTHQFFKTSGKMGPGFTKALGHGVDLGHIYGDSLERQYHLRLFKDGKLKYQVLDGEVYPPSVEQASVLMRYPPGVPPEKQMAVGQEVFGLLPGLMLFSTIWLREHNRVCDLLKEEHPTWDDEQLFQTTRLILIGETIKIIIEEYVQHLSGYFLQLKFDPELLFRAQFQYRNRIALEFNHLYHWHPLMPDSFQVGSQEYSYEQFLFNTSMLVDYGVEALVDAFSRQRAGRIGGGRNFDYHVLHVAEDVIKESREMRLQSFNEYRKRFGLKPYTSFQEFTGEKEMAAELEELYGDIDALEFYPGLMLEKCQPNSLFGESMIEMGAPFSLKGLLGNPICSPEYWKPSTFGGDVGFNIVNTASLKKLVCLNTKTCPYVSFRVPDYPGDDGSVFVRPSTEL
Description: Inhibition of prostaglandin G/H synthase in intact rat basophilic leukemia cells stimulated with the calcium ionophore A-23187

[5] = target: T3, Polyunsaturated fatty acid 5-lipoxygenase (Rattus norvegicus) (UniProt P12527); assay: Inhibitory activity at 10 uM against 5-lipoxygenase in intact rat basophilic leukemia cells stimulated with the calcium ionophore A-23187; type: cell-based; conditions: RBL-1
T3 sequence (whole entry): T1 sequence (P12527 whole entry)

Rattus norvegicus [6] = assay: 40% inhibition of induced edema in the rat mycobacterium foot-pad edema test; Inactive(N)= <30% inhibition at a dose of 10 mg/kg po; type: functional, organism-based; parameters: dose 10 mg/kg
Rattus norvegicus [7] = assay: 40% inhibition of induced edema in the rat mycobacterium foot-pad edema test; type: functional
Rattus norvegicus [8] = assay: Inhibition of rat carrageenan induced foot-pad edema at a dose of 30 mg/kg on peroral administration; N=Inactive; type: functional, organism-based; parameters: dose 30 mg/kg
[9] = target: T3, Polyunsaturated fatty acid 5-lipoxygenase (Rattus norvegicus); assay: Inhibitory activity against 5-lipoxygenase in intact rat basophilic leukemia cells stimulated with the calcium ionophore A-23187; type: cell-based; conditions: RBL-1; concentration not given here
[10] = target: T3, Polyunsaturated fatty acid 5-lipoxygenase (Rattus norvegicus); assay: Inhibitory activity at 1 uM against 5-lipoxygenase in intact rat basophilic leukemia cells stimulated with the calcium ionophore A-23187; type: cell-based; conditions: RBL-1
[11] = target: T1, Polyunsaturated fatty acid 5-lipoxygenase; assay: Inhibitory activity against 5-lipoxygenase in intact rat basophilic leukemia cells stimulated with the calcium ionophore A-23187; Inactive(N)= <50% inhibition at 10 uM; type: cell-based; conditions: rbl-1
[12] = target: T1, Polyunsaturated fatty acid 5-lipoxygenase; assay: Inhibitory activity against 5-lipoxygenase in intact rat basophilic leukemia cells stimulated with the calcium ionophore A-23187; N=Inactive; type: cell-based; conditions: rbl-1
Rattus norvegicus [13] = assay: Inhibition of rat carrageenan induced foot-pad edema at a dose of 30 mg/kg on peroral administration; Inactive(N)= <25% inhibition at a dose of 30 mg/kg po; type: functional, organism-based
[14] = target: T4, Cyclooxygenase (Rattus norvegicus) (UniProt P35355+Q63921); assay: Inhibitory activity against Prostaglandin G/H synthase in intact rat basophilic leukemia cells stimulated with the calcium ionophore A-23187 at 10 uM; type: cell-based; conditions: RBL-1
[15] = target: T4, Cyclooxygenase (Rattus norvegicus); assay: Inhibitory activity at 10 uM against Prostaglandin G/H synthase in intact rat basophilic leukemia cells stimulated with the calcium ionophore A-23187; type: cell-based; conditions: RBL-1

SMILES	inhibition in vivo at 10 mg/kg (Rattus norvegicus [2]) [%]	inhibition in vivo at 30 mg/kg (Rattus norvegicus [3]) [%]	IC50 [4] [µM]	IC50 (Cyclooxygenase) [µM]	further results
CC(C)(C)c1cc(/C=C2\SC(NC#N)=NC2=O)cc(C(C)(C)C)c1O	29	49	0.63	0.16	ID40 (Rattus norvegicus [1]): inactive
CC(C)(C)c1cc(/C=C2\SC(NCCCC(=O)O)=NC2=O)cc(C(C)(C)C)c1O	–	–	–	–	inhibition [5]: 53%
CC(C)(C)c1cc(/C=C2\CC(=S)NC2=O)cc(C(C)(C)C)c1O	19	39	1.7	2.4	ID40 (Rattus norvegicus [6]): inactive
CC(C)(C)c1cc(/C=C2\SC(=O)NC2=O)cc(C(C)(C)C)c1O	54	59	–	0.35	ID40 (Rattus norvegicus [7]): 2 mg/kg
CC(C)(C)c1cc(/C=C2\OC(NC#N)=NC2=O)cc(C(C)(C)C)c1O	–	–	2.6	1.1	inhibition (Rattus norvegicus [8]): inactive
CN(C)C1=NC(=O)/C(=C/c2cc(C(C)(C)C)c(O)c(C(C)(C)C)c2)S1	–	–	–	–	inhibition [9]: 65%
CC(C)(C)c1cc(/C=C2\SC(N=C(N)N)=NC2=O)cc(C(C)(C)C)c1O	34	40	0.91	0.083	ID40 (Rattus norvegicus [7]): 2.2 mg/kg
CON1CC/C(=C\c2cc(C(C)(C)C)c(O)c(C(C)(C)C)c2)C1=O [E-5110]	–	–	–	–	ID40 (Rattus norvegicus [7]): 1.9 mg/kg
CSC1=NC(=O)/C(=C/c2cc(C(C)(C)C)c(O)c(C(C)(C)C)c2)S1	36	47	0.65	0.6	ID40 (Rattus norvegicus [1]): inactive
CN(C)C(=N)NC1=NC(=O)/C(=C/c2cc(C(C)(C)C)c(O)c(C(C)(C)C)c2)S1	–	–	–	–	inhibition [10]: 100%
CC(C)(C)c1cc(/C=C2\OC(=O)NC2=O)cc(C(C)(C)C)c1O	35	51	2.8	0.65	ID40 (Rattus norvegicus [7]): 3.7 mg/kg
CC(C)(C)c1cc(/C=C2\CCOC2=O)cc(C(C)(C)C)c1O	17	28	–	–	ID40 (Rattus norvegicus [7]): 3.7 mg/kg
CN(C)CCNC1=NC(=O)/C(=C/c2cc(C(C)(C)C)c(O)c(C(C)(C)C)c2)S1	–	–	–	–	inhibition [5]: 79%
CNC1=NC(=O)/C(=C/c2cc(C(C)(C)C)c(O)c(C(C)(C)C)c2)S1	–	–	–	–	IC50 [11]: Inactive
CC(C)(C)c1cc(/C=C2\OC(=S)NC2=O)cc(C(C)(C)C)c1O	32	40	0.84	1.7	ID40 (Rattus norvegicus [7]): 12.4 mg/kg
O=C1NC(=O)/C(=C/c2ccc(O)cc2)S1	–	–	–	–	IC50 [12]: Not Active
CN1C(NC#N)=NC(=O)/C1=C/c1cc(C(C)(C)C)c(O)c(C(C)(C)C)c1	–	–	0.7	3.5	inhibition (Rattus norvegicus [8]): inactive
CC(C)(C)c1cc(/C=C2\SC(=S)NC2=O)cc(C(C)(C)C)c1O	32	36	0.38	0.012	–

SMILES	inhibition in vivo at 10 mg/kg (Rattus norvegicus [2]) [%]	inhibition in vivo at 30 mg/kg (Rattus norvegicus [3]) [%]	IC50 [4] [µM]	IC50 (Cyclooxygenase) [µM]	further results
C/C(=C1/SC(=S)NC1=O)c1cc(C(C)(C)C)c(O)c(C(C)(C)C)c1	–	–	2.3	4.5	inhibition (Rattus norvegicus [13]): inactive
CC(C)(C)c1cc(/C=C2\SC(=N)NC2=O)cc(C(C)(C)C)c1O.CS(=O)(=O)O [DARBUFELONE MESYLATE]	52	61	0.77	0.39	ID40 (Rattus norvegicus [7]): 0.6 mg/kg
CONC1=NC(=O)/C(=C/c2cc(C(C)(C)C)c(O)c(C(C)(C)C)c2)S1	–	–	–	–	IC50 [12]: Not Active
CN(O)C1=NC(=O)/C(=C/c2cc(C(C)(C)C)c(O)c(C(C)(C)C)c2)S1 [listing 1 of 2 here]	–	–	7.3	10	–
CN(O)C1=NC(=O)/C(=C/c2cc(C(C)(C)C)c(O)c(C(C)(C)C)c2)S1.Cl	–	–	1.7	0.33	ID40 (Rattus norvegicus [7]): 6.2 mg/kg
CC(C)c1cc(/C=C2\SC(=O)NC2=O)cc(C(C)C)c1O	–	–	0.22	0.82	ID40 (Rattus norvegicus [1]): inactive
CC(C)(C)c1cc(/C=C2\SC(=O)NC2=O)cc(C(C)(C)C)c1	–	–	3.3	4.6	inhibition (Rattus norvegicus [8]): inactive
C/C(=C1/SC(=O)NC1=O)c1cc(C(C)(C)C)c(O)c(C(C)(C)C)c1	–	–	0.48	–	inhibition [14]: 52%
CN1C(=S)NC(=O)/C1=C/c1cc(C(C)(C)C)c(O)c(C(C)(C)C)c1	–	–	0.17	0.79	inhibition (Rattus norvegicus [8]): inactive
C/C(=C1/SC(N=C(N)N)=NC1=O)c1cc(C(C)(C)C)c(O)c(C(C)(C)C)c1	–	–	1.6	1.9	inhibition (Rattus norvegicus [8]): inactive
O=C1NC(=O)/C(=C/c2cc(-c3ccccc3)c(O)c(-c3ccccc3)c2)S1	11	41	0.16	9.6	ID40 (Rattus norvegicus [6]): inactive
CC(C)(C)c1cc(/C=C2\OC(N=C(N)N)=NC2=O)cc(C(C)(C)C)c1O.CS(=O)(=O)O	33	48	1.2	0.34	ID40 (Rattus norvegicus [7]): 5.7 mg/kg
CN1C(=O)NC(=O)/C1=C/c1cc(C(C)(C)C)c(O)c(C(C)(C)C)c1	–	–	0.78	4.6	inhibition (Rattus norvegicus [13]): inactive
CN(O)C1=NC(=O)/C(=C/c2cc(C(C)(C)C)c(O)c(C(C)(C)C)c2)S1 [listing 2 of 2 here]	–	–	–	–	inhibition (Rattus norvegicus [8]): inactive
CN1C(NC(=N)N)=NC(=O)/C1=C/c1cc(C(C)(C)C)c(O)c(C(C)(C)C)c1	–	–	1.3	2.1	inhibition (Rattus norvegicus [8]): inactive
CC(C)(C)c1cc(/C=C2\SC(NO)=NC2=O)cc(C(C)(C)C)c1O	–	–	3.7	0.8	inhibition (Rattus norvegicus [8]): inactive
O=C1NC(=O)/C(=C/c2cc(I)c(O)c(I)c2)S1	–	–	–	–	IC50 [11]: Inactive; inhibition [15]: 60%
C/C(=C1/SC(NC#N)=NC1=O)c1cc(C(C)(C)C)c(O)c(C(C)(C)C)c1	–	–	1.2	5.1	inhibition (Rattus norvegicus [8]): inactive
